Reference: patent US20140263071A1, “METHOD FOR COLLECTING METALS” (CHEMEC OY AB, priority 2011, published 2014)
Marks after values point to notes of the source that are not given here.

Tests used:
[1] = Optimal expulsion pH range with minimum expulsion percent, single elements (Example 7)
Procedure: A water solution (110 ml) containing known amount of single cationic element or elements, typically 0.5-200 ppm, was prepared from Merch Titrisol® standard solution. After adjusting pH by using acid (e.g. HCl or HNO3) or base (e.g. NaOH) to desired initial value, sample A (10 ml) was taken followed by adding 100 mg of selected solid complexation agent. The mixture was stirred at room temperature for 24 h and sample B (10 ml) was taken. Samples A and B were filtrated separately trough 0.2 μm syringe filter and the concentration of the studied element or elements in both solution was determined by using atomic absorption spectrophotometer. The expulsion percent was determined from the concentration differences between the sample solutions A and B.
Using the above mentioned general procedure optimal expulsion pH ranges for each metal with complexation agent 1a was determined. For each element the expulsion percent was determined in 5-14 different pH value. The obtained results are shown in table below with minimum expulsion percent inside the optimal pH range.

[2] = Effect of temperature on expulsion percent, Pb^2+ spiked TS 5, 1a 1.0 g/100 ml, 24 h (Example 12)
Procedure: A test solution containing 1-15 mg/l of Al^3+, Fe^2/3+, Mg^2+, Mn^2+, Ni^2+ and Zn^2+; 0.1-0.9 mg/l of Ca^2+ and Na^+; and trace amount of other Cr^3+, Co^2+, Cu^2+, Eu^3+, La^3+, Nd^3+, Y^3+, UO2^2+ and Nb^5+ cations were prepared.
Effect of temperature to selected metal expulsion per cents was tested using TS 5 with comlexation agent 1a. TS 5 (100 ml), spiked with known amounts of lead (Pb^2+) cations, was stirred with 1a (1.0 g) at selected temperature for 24 h followed by separation of 1a by filtration trough 0.2 μm syringe filter. Metal concentrations at 4° C., 7° C., 22° C., 30° C., 40° C. and 50° C. were determined by using ICP-AES analysis.

[3] = Purification of waste water containing heavy metals, TS 2 (Example 17)
Procedure: Waste water sample from dumping site containing some heavy metals: ca. 2 g/l of Ca^2+; […] of As^3+ (or As^5+), Cr^3+, Fe^2/3+, Pb^2+, Sr^2+, Zn^2+ and Hg^2+; pH 3.56.
TS 2 (100 ml), which initial metal cation concentrations were determined by AAS and ICP-AES methods, was treated with 1a (1.0 g) with stirring for 24 h. After filtration trough 0.2 μm syringe filter metal concentrations in solution were determined.

NCCCCCCCCCCC(O)(P(=O)(O)O)P(=O)(O)O [Compound 1a, 11-Amino-1-hydroxyundecane-1,1-diyldiphosphonic acid]
Expulsion [%] ([1]; Ag^+, minimum within pH range 1.5-12): >84% | Expulsion [%] ([1]; Al^3+, minimum within pH range 1-2): >96% | Expulsion [%] ([1]; Au^3+, minimum within pH range 0-2): >39% | Expulsion [%] ([1]; Ba^2+, minimum within pH range 3-12): >75% | Expulsion [%] ([1]; Bi^3+, minimum within pH range 0.5-4): 100% | Expulsion [%] ([1]; Ca^2+, minimum within pH range 4-12): >50% | Expulsion [%] ([1]; Cd^2+, minimum within pH range 3-11): >36% | Expulsion [%] ([1]; Co^2+, minimum within pH range 4-11): >77% | Expulsion [%] ([1]; Cr^3+, minimum within pH range 2.5-12): >60% | Expulsion [%] ([1]; Cr^6+, As^3/5+, Ta^5+, within pH range 0-12): <8% | Expulsion [%] ([1]; Cu^2+, minimum within pH range 3-11): >87% | Expulsion [%] ([1]; Cu^+, minimum within pH range 3-11): >79% | Expulsion [%] ([1]; Eu^3+, minimum within pH range 2-8): 70% | Expulsion [%] ([1]; Fe^2+, minimum within pH range 3-10): >79% | Expulsion [%] ([1]; Fe^3+, minimum within pH range 1-11): >55% | Expulsion [%] ([1]; Ga^3+, minimum within pH range 0.5-1): 100% | Expulsion [%] ([1]; Ga^3+, minimum within pH range 6-11): >90% | Expulsion [%] ([1]; Hg^2+, minimum within pH range 2-11): >90% | Expulsion [%] ([1]; Hg^+, minimum within pH range 2-11): >80% | Expulsion [%] ([1]; Ir^3+, minimum within pH range 0.0-0.5): >65% | Expulsion [%] ([1]; La^3+, minimum within pH range 0-3.8): >40% | Expulsion [%] ([1]; Li^+, Na^+, K^+, within pH range 0-12): <5% | Expulsion [%] ([1]; Mg^2+, minimum within pH range 4-12): >74% | Expulsion [%] ([1]; Mn^2+, minimum within pH range 4-10): >69% | Expulsion [%] ([1]; Mo^6+, minimum within pH range 4-10): >55% | Expulsion [%] ([1]; Nb^5+, minimum within pH range 0-12): >40% | Expulsion [%] ([1]; Nd^3+, minimum within pH range 2-8): >75% | Expulsion [%] ([1]; Ni^2+, minimum within pH range 4-11): >40% | Expulsion [%] ([1]; Os^4+, minimum within pH range 5-7): >40% | Expulsion [%] ([1]; Pb^2+, minimum within pH range 2-9): >79% | Expulsion [%] ([1]; Pd^2+, minimum within pH range 7-12): >65% | Expulsion [%] ([1]; Pt^2+, minimum within pH range 0-1): >60% | Expulsion [%] ([1]; Rh^3+, minimum within pH range 2-10): >19% | Expulsion [%] ([1]; Ru^3+, minimum within pH range 2-11): >55% | Expulsion [%] ([1]; Sb^3+, minimum within pH range 0.5-11): >75% | Expulsion [%] ([1]; Sc^3+, minimum within pH range 0-12): >80% | Expulsion [%] ([1]; Si^4+, Se^4/6+, within pH range 0-12): <2% | Expulsion [%] ([1]; Sn^2+, minimum within pH range 8-10): 100% | Expulsion [%] ([1]; Sn^4+, minimum within pH range 7-11): >91% | Expulsion [%] ([1]; Sr^2+, minimum within pH range 4-12): >80% | Expulsion [%] ([1]; Ti^4+, minimum within pH range 10-12): >35% | Expulsion [%] ([1]; V^4+, minimum within pH range 0-0.5): >30% | Expulsion [%] ([1]; W^6+, minimum within pH range 0.5-3): >12% | Expulsion [%] ([1]; Y^3+, minimum within pH range 1.5-4 >10): >60% | Expulsion [%] ([1]; Zn^2+, minimum within pH range 4-11): >75% | Expulsion [%] ([1]; Zr^4+, minimum within pH range 0-4.8-10): 60% | Expulsion [%] ([2]; Al^3+, 4° C.): 6.3% | Expulsion [%] ([2]; Al^3+, 7° C.): 15.4% | Expulsion [%] ([2]; Al^3+, 22° C.): 18.5% | Expulsion [%] ([2]; Al^3+, 30° C.): 14.6% | Expulsion [%] ([2]; Al^3+, 40° C.): 98.0% | Expulsion [%] ([2]; Al^3+, 50° C.): 97.6% | Expulsion [%] ([2]; Ca^2+, 4° C.): 0.0% | Expulsion [%] ([2]; Ca^2+, 7° C.): 0.0% | Expulsion [%] ([2]; Ca^2+, 22° C.): 9.4% | Expulsion [%] ([2]; Ca^2+, 30° C.): 10.0% | Expulsion [%] ([2]; Ca^2+, 40° C.): 63.5% | Expulsion [%] ([2]; Ca^2+, 50° C.): 71.2% | Expulsion [%] ([2]; Cd^2+, 4° C.): 16.1% | Expulsion [%] ([2]; Cd^2+, 7° C.): 18.3% | Expulsion [%] ([2]; Cd^2+, 22° C.): 34.5% | Expulsion [%] ([2]; Cd^2+, 30° C.): 41.3% | Expulsion [%] ([2]; Cd^2+, 40° C.): 99.0% | Expulsion [%] ([2]; Cd^2+, 50° C.): 98.9% | Expulsion [%] ([2]; Fe^2/3+, 4° C.): 0.0% | Expulsion [%] ([2]; Fe^2/3+, 7° C.): 0.7% | Expulsion [%] ([2]; Fe^2/3+, 22° C.): 5.2% | Expulsion [%] ([2]; Fe^2/3+, 30° C.): 4.4% | Expulsion [%] ([2]; Fe^2/3+, 40° C.): 99.3% | Expulsion [%] ([2]; Fe^2/3+, 50° C.): ≥ 99.3^1% | Expulsion [%] ([2]; Mg^2+, 4° C.): 0.7% | Expulsion [%] ([2]; Mg^2+, 7° C.): 0.7% | Expulsion [%] ([2]; Mg^2+, 22° C.): 7.1% | Expulsion [%] ([2]; Mg^2+, 30° C.): 5.5% | Expulsion [%] ([2]; Mg^2+, 40° C.): ≥ 97.7^1% | Expulsion [%] ([2]; Mg^2+, 50° C.): ≥ 97.7^1% | Expulsion [%] ([2]; Mn^2+, 4° C.): 4.6% | Expulsion [%] ([2]; Mn^2+, 7° C.): 5.3% | Expulsion [%] ([2]; Mn^2+, 22° C.): 14.7% | Expulsion [%] ([2]; Mn^2+, 30° C.): 13.3% | Expulsion [%] ([2]; Mn^2+, 40° C.): ≥ 99.7^1% | Expulsion [%] ([2]; Mn^2+, 50° C.): ≥ 99.7^1% | Expulsion [%] ([2]; Ni^2+, 4° C.): 0.9% | Expulsion [%] ([2]; Ni^2+, 7° C.): 1.4% | Expulsion [%] ([2]; Ni^2+, 22° C.): 4.6% | Expulsion [%] ([2]; Ni^2+, 30° C.): 4.6% | Expulsion [%] ([2]; Ni^2+, 40° C.): 97.1% | Expulsion [%] ([2]; Ni^2+, 50° C.): 95.2% | Expulsion [%] ([2]; Pb^2+, 4° C.): ≥ 98.1^1% | Expulsion [%] ([2]; Pb^2+, 7° C.): ≥ 98.1^1% | Expulsion [%] ([2]; Pb^2+, 22° C.): ≥ 98.1^1% | Expulsion [%] ([2]; Pb^2+, 30° C.): ≥ 98.1^1% | Expulsion [%] ([2]; Pb^2+, 40° C.): ≥ 98.1^1% | Expulsion [%] ([2]; Pb^2+, 50° C.): ≥ 98.1^1% | Expulsion [%] ([2]; Zn^2+, 4° C.): 9.0% | Expulsion [%] ([2]; Zn^2+, 7° C.): 10.4% | Expulsion [%] ([2]; Zn^2+, 22° C.): 22.9% | Expulsion [%] ([2]; Zn^2+, 30° C.): 25.7% | Expulsion [%] ([2]; Zn^2+, 40° C.): 97.6% | Expulsion [%] ([2]; Zn^2+, 50° C.): 98.0% | Expulsion [%] ([3]; As^3/5+): ≥ 61.7^2) % | Expulsion [%] ([3]; Ca^2+): 75.4% | Expulsion [%] ([3]; Cd^2+): ≥ 89.4^5) % | Expulsion [%] ([3]; Cr^3+): 23.9% | Expulsion [%] ([3]; Fe^2/3+): 22.8% | Expulsion [%] ([3]; Hg^1/2+ (CVAAS)): 99.0^1) % | Expulsion [%] ([3]; Pb^2+): ≥ 68.9^5) % | Expulsion [%] ([3]; Sr^2+): 84.3% | Expulsion [%] ([3]; Zn^2+): 76.8%
